Legend:
[1] = system: db/db mice, permanent occlusion of the MCA; experiment: pMCAO in db/db mice: infarct volume; type: in vivo; conditions: 20 mg/kg i.v. immediately after MCA occlusion, 24 hours
Protocol: The effect of compounds of the present invention on infarct volume and edema associated with stroke was examined in an animal model of ischemic stroke. In these studies, mice were subjected to permanent occlusion of the middle cerebral artery. Mice were anesthetized intraperitoneally with avertin (0.5 mg/g). Mice were then immobilized in a rodent stereotaxic frame (Kopf Instruments, Tujunga Calif.) and maintained with avertin as needed. The surgical area of the head was swabbed with 70% ethanol and a lateral incision was made between the right orbit and the right ear. […] The distal course of the middle cerebral artery (MCA) was visible through the translucent skull. A small burr-hole craniotomy was performed with a micro-drill (Fine Science Tools, Foster City Calif.). The meninges/dura was removed and the MCA was coagulated by bipolar diathermy. The muscle and soft tissue were replaced and the incision closed with vet-bond adhesive (3M, St. Paul Minn.). These studies were performed in two different mouse models of pMCAO as described below.
To evaluate the effect of compounds of the present invention on infarct volume in an animal model of diabetes, db/db mice were subjected to ischemic stroke. Eight week-old male db/db mice were subjected to permanent occlusion of the MCA as described above. […] Changes in infarct volumes were determined as described above.

[2] = system: Wistar rats, transient MCA occlusion; experiment: Tactile adhesion test in rat tMCAO; type: in vivo; conditions: 60 mg/kg p.o. at 1.5 and 24 hours after reperfusion then 30 mg/kg every other day, day 7, vs non-treated control, FIG. 4
From the text: Rats subjected to cerebral ischemia following transient MCA occlusion have deficits in sensorimotor and neuromuscular function which can be assessed using various behavioral tests. (See, e.g., Aronowski et al. J Cereb Blood Flow Metab (1996) 16:705-713; and Colbourne et al. J Cereb Blood Flow Metab (2000) 20:1702-1708.) The effect of compounds of the present invention on various functional impairments associated with stroke was examined using an animal model of ischemic stroke. In this series of experiments, male Wistar rats (300 g) underwent behavioral testing after transient MCA occlusion. One day prior to MCAO surgery, the rats were trained to the grip strength meter and subjected to tactile adhesion testing. Following their training, rats were subjected to transient occlusion of the MCA in the same manner described in Example 10 above. Compound F (60 mg/kg, p.o.) was administered by oral gavage at 1.5 hours and 24 hours after reperfusion and then every other day (with a dose of 30 mk/kg, p.o.) for 28 days. […]
A tactile adhesion test was used to measure sensorimotor deficits and function. […] The latency (i.e. time required for the animal to remove each stimulus from the forelimbs) was recorded for ipsilateral (right) and contralateral (left) forelimbs separately. Three trials separated by 5 minutes were carried out for each rat and mean latency values in seconds (sec) were recorded.

COc1ccc(Oc2ccc3c(O)c(C(=O)NCC(=O)O)ncc3c2)cc1 [Compound F, {[4-Hydroxy-7-(4-methoxy-phenoxy)-isoquinoline-3-carbonyl]-amino}-acetic acid]
reduction in infarct volume [1]: 52% | latency in the tactile adhesion test [2]: significantly improved

From patent US9775902B2, “Compounds and methods for treatment of stroke” (FIBROGEN, INC, priority 2006, dated 2017)
